From patent publication US20200181117A1, “SUBSTITUTED 3-HETEROARYLOXY-1H-PYRAZOLES AND SALTS THEREOF AND THEIR USE AS HERBICIDAL ACTIVE SUBSTANCES” (BAYER CROPSCIENCE AKTIENGESELLSCHAFT, priority 2017, published 2020)

What was measured:
Type in all cases: in vivo
[1] = system: Viola tricolor; assay: Post-emergence herbicidal action; settings: 1280 g/ha, rated visually after about 3 weeks vs untreated controls
Outline: (§1)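 Visual rating against untreated plants, about 3 weeks post-treatment, on a 0-100% scale where 100% means plant death. Treatment: 1280 g/ha of WP/EC preparations with 0.5% additive in 600 l/ha water, sprayed on one-leaf-stage weeds grown in greenhouse sandy loam.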

[2] = system: Abutilon theophrasti; assay: Pre-emergence herbicidal action; settings: 1280 g/ha, scored visually after about 3 weeks vs untreated controls
Outline: (§2)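 Test compounds at 1280 g/ha are sprayed onto soil covering freshly sown seeds, using 600 l/ha water with 0.5% additive. Pots stay in the greenhouse about 3 weeks, then activity is rated visually in percent against untreated controls.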

[3] = system: Alopecurus myosuroides; assay: Pre-emergence herbicidal action; settings: 1280 g/ha, scored visually after about 3 weeks vs untreated controls
Outline: as §2

[4] = system: Amaranthus retroflexus; assay: Pre-emergence herbicidal action; settings: 1280 g/ha, scored visually after about 3 weeks vs untreated controls
Outline: as §2

[5] = system: Echinochloa crus-galli; assay: Pre-emergence herbicidal action; settings: 1280 g/ha, scored visually after about 3 weeks vs untreated controls
Outline: as §2

[6] = system: Matricaria inodora; assay: Pre-emergence herbicidal action; settings: 1280 g/ha, scored visually after about 3 weeks vs untreated controls
Outline: as §2

[7] = system: Pharbitis purpurea; assay: Pre-emergence herbicidal action; settings: 1280 g/ha, scored visually after about 3 weeks vs untreated controls
Outline: as §2

[8] = system: Polygonum convolvulus; assay: Pre-emergence herbicidal action; settings: 1280 g/ha, scored visually after about 3 weeks vs untreated controls
Outline: as §2

[9] = system: Setaria viridis; assay: Pre-emergence herbicidal action; settings: 1280 g/ha, scored visually after about 3 weeks vs untreated controls
Outline: as §2

[10] = system: Stellaria media; assay: Pre-emergence herbicidal action; settings: 1280 g/ha, scored visually after about 3 weeks vs untreated controls
Outline: as §2

[11] = system: Viola tricolor; assay: Pre-emergence herbicidal action; settings: 1280 g/ha, scored visually after about 3 weeks vs untreated controls
Outline: as §2

[12] = system: Abutilon theophrasti; assay: Post-emergence herbicidal action; settings: 1280 g/ha, rated visually after about 3 weeks vs untreated controls
Outline: as §1

[13] = system: Alopecurus myosuroides; assay: Post-emergence herbicidal action; settings: 1280 g/ha, rated visually after about 3 weeks vs untreated controls
Outline: as §1

[14] = system: Amaranthus retroflexus; assay: Post-emergence herbicidal action; settings: 1280 g/ha, rated visually after about 3 weeks vs untreated controls
Outline: as §1

[15] = system: Polygonum convolvulus; assay: Post-emergence herbicidal action; settings: 1280 g/ha, rated visually after about 3 weeks vs untreated controls
Outline: as §1

[16] = system: Stellaria media; assay: Post-emergence herbicidal action; settings: 1280 g/ha, rated visually after about 3 weeks vs untreated controls
Outline: as §1

[17] = system: Avena fatua; assay: Pre-emergence herbicidal action; settings: 1280 g/ha, scored visually after about 3 weeks vs untreated controls
Outline: as §2

[18] = system: Hordeum murinum; assay: Pre-emergence herbicidal action; settings: 1280 g/ha, scored visually after about 3 weeks vs untreated controls
Outline: as §2

[19] = system: Lolium rigidum; assay: Pre-emergence herbicidal action; settings: 1280 g/ha, scored visually after about 3 weeks vs untreated controls
Outline: as §2

[20] = system: Echinochloa crus-galli; assay: Post-emergence herbicidal action; settings: 1280 g/ha, rated visually after about 3 weeks vs untreated controls
Outline: as §1

[21] = system: Pharbitis purpurea; assay: Post-emergence herbicidal action; settings: 1280 g/ha, rated visually after about 3 weeks vs untreated controls
Outline: as §1

[22] = system: Setaria viridis; assay: Post-emergence herbicidal action; settings: 1280 g/ha, rated visually after about 3 weeks vs untreated controls
Outline: as §1

[23] = system: Veronica persica; assay: Post-emergence herbicidal action; settings: 1280 g/ha, rated visually after about 3 weeks vs untreated controls
Outline: as §1

[24] = system: Veronica persica; assay: Pre-emergence herbicidal action; settings: 1280 g/ha, scored visually after about 3 weeks vs untreated controls
Outline: as §2

With CCn1cc(Sc2ccc(F)cc2)c(Oc2ncccn2)n1 [Example I-038] the “herbicidal activity on Viola tricolor” value [1] was 90%, the “herbicidal activity on Abutilon theophrasti” value [2] was 80% and the “herbicidal activity on Alopecurus myosuroides” value [3] was 80%. For the same molecule, the “herbicidal activity on Amaranthus retroflexus” value [4] was 100%, the “herbicidal activity on Echinochloa crus-galli” value [5] was 80% and the “herbicidal activity on Matricaria inodora” value [6] was 90%. The “herbicidal activity on Pharbitis purpurea” value [7] was 80%, the “herbicidal activity on Polygonum convolvulus” value [8] was 80% and the “herbicidal activity on Setaria viridis” value [9] was 100%. For the same molecule, the “herbicidal activity on Stellaria media” value [10] was 100% and the “herbicidal activity on Viola tricolor” value [11] was 100%.

With CCc1c(Sc2ccc(F)c(F)c2)c(Oc2ncccn2)nn1C [Example I-062] the “herbicidal activity on Abutilon theophrasti” value [12] was 100%, the “herbicidal activity on Alopecurus myosuroides” value [13] was 80% and the “herbicidal activity on Amaranthus retroflexus” value [14] was 100%. The “herbicidal activity on Polygonum convolvulus” value [15] was 90%, the “herbicidal activity on Stellaria media” value [16] was 90% and the “herbicidal activity on Viola tricolor” value [1] was 100%. The “herbicidal activity on Abutilon theophrasti” value [2] was 100%, the “herbicidal activity on Alopecurus myosuroides” value [3] was 100% and the “herbicidal activity on Amaranthus retroflexus” value [4] was 100%. For the same molecule, the “herbicidal activity on Avena fatua” value [17] was 80%, the “herbicidal activity on Echinochloa crus-galli” value [5] was 100% and the “herbicidal activity on Hordeum murinum” value [18] was 100%. For the same molecule, the “herbicidal activity on Lolium rigidum” value [19] was 80%, the “herbicidal activity on Matricaria inodora” value [6] was 100% and the “herbicidal activity on Pharbitis purpurea” value [7] was 80%. For the same molecule, the “herbicidal activity on Polygonum convolvulus” value [8] was 100%, the “herbicidal activity on Setaria viridis” value [9] was 100% and the “herbicidal activity on Stellaria media” value [10] was 100%. For the same molecule, the “herbicidal activity on Viola tricolor” value [11] was 100%.

In the case of CCc1c(Sc2ccc(F)cc2)c(Oc2ncc(F)cn2)nn1C [Example I-183], the “herbicidal activity on Abutilon theophrasti” value [12] is reported as 90%, the “herbicidal activity on Alopecurus myosuroides” value [13] is reported as 90% and the “herbicidal activity on Amaranthus retroflexus” value [14] is reported as 100%. For the same molecule, the “herbicidal activity on Echinochloa crus-galli” value [20] was 90%, the “herbicidal activity on Pharbitis purpurea” value [21] was 100% and the “herbicidal activity on Polygonum convolvulus” value [15] was 90%. The “herbicidal activity on Setaria viridis” value [22] was 100%, the “herbicidal activity on Stellaria media” value [16] was 90% and the “herbicidal activity on Veronica persica” value [23] was 90%. The “herbicidal activity on Viola tricolor” value [1] was 100%, the “herbicidal activity on Abutilon theophrasti” value [2] was 100% and the “herbicidal activity on Alopecurus myosuroides” value [3] was 100%. The “herbicidal activity on Amaranthus retroflexus” value [4] was 100%, the “herbicidal activity on Echinochloa crus-galli” value [5] was 100% and the “herbicidal activity on Hordeum murinum” value [18] was 100%. The “herbicidal activity on Lolium rigidum” value [19] was 100%, the “herbicidal activity on Matricaria inodora” value [6] was 100% and the “herbicidal activity on Polygonum convolvulus” value [8] was 100%. The “herbicidal activity on Setaria viridis” value [9] was 100%, the “herbicidal activity on Stellaria media” value [10] was 100% and the “herbicidal activity on Viola tricolor” value [11] was 100%.

In the case of COc1cnc(Oc2nn(C)c(C)c2Sc2ccc(F)cc2F)nc1 [Example I-205], the “herbicidal activity on Abutilon theophrasti” value [12] is reported as 90%, the “herbicidal activity on Amaranthus retroflexus” value [14] is reported as 90% and the “herbicidal activity on Setaria viridis” value [22] is reported as 80%. For the same molecule, the “herbicidal activity on Viola tricolor” value [1] was 90%, the “herbicidal activity on Abutilon theophrasti” value [2] was 100% and the “herbicidal activity on Alopecurus myosuroides” value [3] was 100%. The “herbicidal activity on Amaranthus retroflexus” value [4] was 100%, the “herbicidal activity on Avena fatua” value [17] was 100% and the “herbicidal activity on Echinochloa crus-galli” value [5] was 100%. The “herbicidal activity on Hordeum murinum” value [18] was 100%, the “herbicidal activity on Lolium rigidum” value [19] was 100% and the “herbicidal activity on Matricaria inodora” value [6] was 100%. The “herbicidal activity on Pharbitis purpurea” value [7] was 100%, the “herbicidal activity on Polygonum convolvulus” value [8] was 100% and the “herbicidal activity on Setaria viridis” value [9] was 100%. For the same molecule, the “herbicidal activity on Stellaria media” value [10] was 100%, the “herbicidal activity on Veronica persica” value [24] was 100% and the “herbicidal activity on Viola tricolor” value [11] was 100%.

CCn1cc(Sc2ccc(F)cc2)c(Oc2ncc(F)cn2)n1 [Example I-211] was tested, and the “herbicidal activity on Polygonum convolvulus” value [15] was 100%, the “herbicidal activity on Setaria viridis” value [22] was 90% and the “herbicidal activity on Stellaria media” value [16] was 100%. The “herbicidal activity on Viola tricolor” value [1] was 80%, the “herbicidal activity on Abutilon theophrasti” value [2] was 90% and the “herbicidal activity on Alopecurus myosuroides” value [3] was 90%. For the same molecule, the “herbicidal activity on Amaranthus retroflexus” value [4] was 100%, the “herbicidal activity on Echinochloa crus-galli” value [5] was 90% and the “herbicidal activity on Lolium rigidum” value [19] was 100%. The “herbicidal activity on Matricaria inodora” value [6] was 90%, the “herbicidal activity on Pharbitis purpurea” value [7] was 80% and the “herbicidal activity on Polygonum convolvulus” value [8] was 90%. For the same molecule, the “herbicidal activity on Setaria viridis” value [9] was 100%, the “herbicidal activity on Stellaria media” value [10] was 100% and the “herbicidal activity on Veronica persica” value [24] was 100%. The “herbicidal activity on Viola tricolor” value [11] was 100%.
